Series [1] can be described thus: Uptake of toxin into particles, centrifuge filter separation and HPLC: etomidate. To be noted: etomidate in the absence of albumin.
Series [2] can be described thus: physchem.
Procedure: (§1) Methanol and dichloromethane were particularly effective for this purpose. After solubilizing the compound and soy oil or tocopherol together with the common solvent, the common solvent was then evaporated using a rotovap. At the resulting concentration of the compound in soy oil or tocopherol, the sample was monitored over approximately 4 weeks for any sign of precipitation, using centrifugation and microscopy; the microscopy was performed using a combination of Differential Interference Contrast (DIC), transmitted dark field, and polarizing modes.
The nature of series [3]: Solubility of drugs in soy oil, water, tocopherol and PC/tocopherol/water cubic phase.
Procedure: as §1
A short description of series [4]: Partition of amphotericin B between PC/alpha-tocopherol/water cubic phase and water (HPLC). The format is physicochemical. How it is done:
Amphotericin B provides an example of an API with high toxicity which has a site of action in the interior of a fungal lipid biomembrane.
An amount 0.0082 g of Amphotericin B and 0.8 mL of DMSO (dimethylsulfoxide) were added to a 16 mL test tube. The test tube was heated to 60° C. until the amphotericin B was completely dissolved. An amount 0.692 g of 2.5% DMPG in the phosphatidylcholine product Lipoid E80, 0.8 mL of DMSO, and 0.6 mL of ethanol were added to a second 16 mL test tube. The mixture was heated to 60° C. and vortexed until the Lipoid E80/DMPG was entirely dissolved. An amount 0.6873 g of vitamin E and 0.8 mL of DMSO were added to a third 16 mL test tube. The mixture was heated to 60° C. and vortexed until the vitamin E was completely dissolved. The contents of the second and third test tubes were added to the first test tube containing the amphotericin B and DMSO mixture. The test tube containing the entire mixture was heated to 60° C. for 30 minutes to ensure that all components were completely dissolved.
An amount of 10 mL of deionized water was added to the test tube. The test tube was gently shaken at 40 RPM for 30 minutes on a Lab-Line Junior Orbit Shaker. The aqueous portion was decanted and filtered through Aldrich medium speed filter paper into a clean test tube and labeled “wash 1”. This washing procedure was repeated three additional times to obtain “wash 2”, “wash 3”, and “wash 4”.
HPLC analysis was then performed to determine the amphotericin B concentrations in the 4 wash solutions and the final, quadruply-washed cubic phase. […] In contrast, the amphotericin B concentrations in the “wash 3” and “wash 4” solutions were both approximately 0.0035 mg/mL, thus making the partition coefficient on the order of 1,000.

The nature of series [5]: Effective partition coefficients of local anesthetics into Example 10 dispersions in the presence of albumin. To be noted: dispersions and methods of Example 10, RA5-15E dispersion named.
Procedure: Nanosep Omega centrifuge filters at 300,000 MWCO from Pall Filtron were used to separate particles from exterior phase.
For HPLC analysis, the bottom phase liquid (filtrate) was injected directly, and the top phase (retentate) dissolved in 500 microliters of methanol, then injected. […] Standards were run for each of the toxins, and toxin concentrations determined in the exterior (bottom) phase and in the top phase retentate.
The analysis proceeded as follows. […] From this and the top phase assay value, the concentration of toxin in the particles was back-calculated. This was then divided by the aqueous phase (bottom phase) concentration, since this was undiluted, in order to arrive at an effective partition coefficient.
The conditions of series [6]: pH 7.4; cited from earlier work.
Series [7] concerns bupivacaine cardiotoxicity. In words: Rescue in rat model with normally-lethal intravenous injection of bupivacaine. The format is in vivo. To be noted: rats, 12 mg/Kg intravenously, all animals. How it is done: The RA5-5E and RA5-15E dispersions prepared in Example 10 were subsequently tested in vivo as a rescue agent in a rat model incorporating a normally-lethal intravenous injection of bupivacaine. Twelve adult male rats were randomly arranged into three groups of four animals each. Animals in each group were given a known lethal dose (12 mg/Kg) of the amide local anesthetic bupivacaine intravenously. Each animal was monitored for signs of acute cardiotoxicity. All animals became pulseless within 10 seconds of the injection of bupivacaine. When each animal became pulseless, it was treated immediately with mild chest compression and with one of the following: (i) 4 ml/Kg normal physiologic saline (Group A); (ii) 4 ml/Kg of dispersion RA5-15E of the instant invention with a 15 percent particle concentration (Group B); or, (iii) 6 ml/Kg of dispersion RA5-5E of the instant invention with a 5.6 percent particle concentration (Group C). […] The administration of the dispersion according to the instant invention rescued the animals from death due to the systemic toxicity of an overdose of a common local anesthetic agent.

Series [8] is described as follows: Binding of strontium ions to cubic phase particles (precipitation, centrifugation). It is filed as physicochemical. Conditions: 18.9 mM strontium chloride added to RA5-15E; immediate precipitation, centrifuged to the bottom. An excerpt: A high degree of binding of strontium ions to the phosphatidylcholine in RA5-15E was evidenced by the immediate precipitation of the cubic phase, which centrifuged to the bottom of the dispersion. Were the heavy strontium ions not bound, the cubic phase would be less dense than water and would have centrifuged to the top of the dispersion, as is the usual case with other methods of precipitating the particles. Radiostrontium, and to a lesser extent strontium, have known toxic effects, as do related phosphatidylcholine-binding metals. More broadly, this Example illustrates how the effect of large bilayer surface areas in cubic phase particles can result in effective uptake of toxins that bind to bilayer components.

Series [9] in a line: Partitioning of vecuronium bromide between phosphatidylcholine/tocopherol/water reversed cubic phase and water (HPLC). The format is physicochemical. How it is done:
In this Example, the partitioning of the quaternary ammonium skeletal muscle relaxant vecuronium bromide, a water-soluble compound with a low octanol-water partition coefficient, between a phosphatidylcholine/tocopherol/water reversed cubic phase and water is measured, and found to be very high, sufficiently high as to enable the use of the invention in attenuating the effect of the drug in the body of a mammal. An amount 0.6169 gm of phosphatidylcholine (Phospholipon 90G, from Phospholipid GmbH) was mixed with 0.6730 gm of alpha-tocopherol and 0.2194 gm of a 10% vecuronium bromide solution in water. An amount 1.1226 gm of this mixture was smeared onto the inner wall of a test tube, and 6.4495 gm of water added to the tube so as to contact the mixture. Upon swelling with water, the mixture became a reversed cubic phase. […] The partition coefficient between cubic phase and water was thus approximately 1,600 (or log KQW=3.2). […] One with ordinary skill in the art will recognize that the vecuronium mass balance checks correctly if one assumes that the water content of the final cubic phase, after swelling to equilibrium, is approximately 40%, which is in perfect accord with the phase diagram derived in this laboratory for this cubic phase region.

For series [10] the following is noted: intravenous doses as high as 30 mg/Kg/day; cited from earlier work.
Where [11] appears, read: oil or lipid, Solubility in soy oil.

≈ marks a conversion by molar mass, not a printed value. Like-named read-outs stand apart in the source and are kept apart here.

The term solubility denotes the dissolved amount per volume that the medium holds.

The compound `CCOC(=O)c1cncn1[C@H](C)c1ccccc1` [Etomidate] yielded an effective partition coefficient in series [1] of 309. Also, the solubility in [2] (oil or lipid, Solubility in cubic phase with tocopherol, approx. 34% phosphatidylcholine, 31% tocopherol plus compound, 35% water) worked out at 105 mg/mL; in series [2] (setting [11]), 80 mg/mL (≈ 327 mM); in [2] (oil or lipid, Solubility in tocopherol), 200 mg/mL (≈ 819 mM); in series [2] (water, Solubility in Water), 4.5e-05 mg/mL (≈ 0.000184 mM).

Turning to `CCC(C)n1ncn(-c2ccc(N3CCN(c4ccc(OCC5COC(Cn6cncn6)(c6ccc(Cl)cc6Cl)O5)cc4)CC3)cc2)c1=O` (stereo not shown) [Itraconazole], the solubility in [3] (soy oil, oil or lipid) is less than 500 µg/mL; in series [3] (water) it was 0.001 µg/mL (≈ 1.42e-06 mM).

On to `COc1c(C)c2c(c(O)c1C/C=C(\C)CCC(=O)OCCN1CCOCC1)C(=O)OC2` [Mycophenolate mofetil], for which the solubility was 3000 µg/mL (≈ 6.92 mM) in series [3] (soy oil, oil or lipid); 200000 µg/mL (≈ 461 mM) in series [3] (tocopherol, oil or lipid); 39 µg/mL (≈ 0.09 mM) in series [3] (water).

As for `CC(=O)O[C@H]1C(=O)[C@@]2(C)[C@H]([C@H](OC(=O)c3ccccc3)[C@]3(O)C[C@H](OC(=O)[C@H](O)[C@@H](NC(=O)c4ccccc4)c4ccccc4)C(C)=C1C3(C)C)[C@]1(OC(C)=O)CO[C@@H]1C[C@@H]2O` [Paclitaxel], the solubility was 42 mg/mL (≈ 49.2 mM) in series [2] (oil or lipid, Solubility in cubic phase with spearmint oil in place of tocopherol); less than 0.1 mg/mL in series [2] (setting [11]); 100 mg/mL (≈ 117 mM) in [2] (oil or lipid, Solubility in spearmint oil (used in place of tocopherol)).

Regarding `C[C@@H]1[C@H](O)[C@@H](C)/C=C/C=C/C=C/C=C/C=C/C=C/C=C/[C@H](O[C@@H]2O[C@H](C)[C@@H](O)[C@H](N)[C@@H]2O)C[C@@H]2O[C@](O)(C[C@@H](O)C[C@@H](O)[C@H](O)CC[C@@H](O)C[C@@H](O)CC(=O)O[C@H]1C)C[C@H](O)[C@H]2C(=O)O` [amphotericin B], the “concentration in "wash 3" and "wash 4" solutions” value in [4] is “approximately 0.0035 mg/mL”. Further, the “true concentration in the cubic phase itself, estimated” value in series [4] (corrected for entrapped water) is given as “approximately 3 mg/mL”. The “concentration in quadruply-washed cubic phase (HPLC)” value in series [4] (cubic phase with entrapped pockets of water) is 1.76 mg/mL.

Take `CCOC(=O)c1ccc(N)cc1` [benzocaine]: the effective partition coefficient in series [5] stood at 148.

In the case of `CCCCN1CCCCC1C(=O)Nc1c(C)cccc1C` (stereo not shown) [bupivacaine], the octanol-water coefficient result in [6] is recorded as “greater than 1,000”. Besides, the effective partition coefficient in series [5] came out at 62. In addition, the “time to pulselessness after injection” value in series [7] was not above 10 s.

With `[Cl-].[Cl-].[Sr+2]` [strontium ions, strontium chloride], in series [8], the “binding of strontium ions to cubic phase particles” value is on record as “strong binding”.

As to `CC(=O)O[C@H]1C[C@@H]2CC[C@@H]3[C@H](CC[C@@]4(C)[C@H]3C[C@H]([N+]3(C)CCCCC3)[C@@H]4OC(C)=O)[C@@]2(C)C[C@@H]1N1CCCCC1` [vecuronium bromide], in series [9], the “log KQW” value is 3.2; the “partition coefficient between cubic phase and water” value is on record as “approximately 1,600”. Further, in series [9] (after 3 days of contact), the “concentration in the aqueous phase” value is 6 µg/mL and the “concentration in the cubic phase” value was 10.0 mg/mL. For the same compound, the “log KQW” value in [9] (anionic lipid content increased by incorporating a bile salt) was “approximately 4”. Besides, the “cubic phase-water partition coefficient” value in series [9] (for at least some cubic phases of use in the invention) is on record as “above 1,000”.

On to tocopherol, for which, in [10], the “adverse effects of intravenous doses” value is recorded as “essentially free from any adverse effects”.

These data come from US7968124B2, “Compositions for the reversal and detoxification of anesthetics and other compounds and methods of their use” (Lyotropic Therapeutics, Inc., priority 2004, dated 2011).
